Source: ChEMBL document CHEMBL3045205, “Synthesis and Fungicidal Activities of [2-(2, 5-Dimethylphenoxymethyl)--methoxyiminobenzyl]-isoxazole Derivatives” (J Pestic Sci, 1999)

Assays:
Format in all cases: functional
[1] = test system: Puccinia coronata; test: Fungicidal activity against Puccinia coronata inoculated in oat leaves treated with compound 24 hr after fungal inoculation assessed as inhibition of oat crown rust disease at 31.3 ppm measured after 9 days under greenhouse conditions relative to untreated control
[2] = test system: Puccinia coronata; test: Fungicidal activity against Puccinia coronata inoculated in oat leaves treated with compound 24 hr after fungal inoculation assessed as inhibition of oat crown rust disease at 7.8 ppm measured after 9 days under greenhouse conditions relative to untreated control
[3] = test system: Botrytis cinerea; test: Fungicidal activity against Botryotinia fuckeliana inoculated on cucumber leaves pre-treated with compound 24 hr before fungal inoculation assessed as inhibition of cucumber gray mold disease at 31.3 ppm measured after 3 days under greenhouse conditions relative to untreated control
[4] = test system: Blumeria graminis f. sp. tritici; test: Fungicidal activity against Blumeria graminis f. sp. tritici inoculated on wheat seedlings treated with compound 24 hr after fungal inoculation assessed as inhibition of wheat powdery mildew disease at 31.3 ppm measured after 10 days under greenhouse conditions relative to untreated control
[5] = test system: Blumeria graminis f. sp. tritici; test: Fungicidal activity against Blumeria graminis f. sp. tritici inoculated on wheat seedlings pre-treated with compound 24 hr before fungal inoculation assessed as inhibition of wheat powdery mildew disease at 31.3 ppm measured after 10 days under greenhouse conditions relative to untreated control
[6] = test system: Puccinia coronata; test: Fungicidal activity against Puccinia coronata inoculated in oat leaves pre-treated with compound 24 hr before fungal inoculation assessed as inhibition of oat crown rust disease at 7.8 ppm measured after 9 days under greenhouse conditions relative to untreated control
[7] = test system: Podosphaera fuliginea; test: Fungicidal activity against Podosphaera fuliginea inoculated on cucumber plants pre-treated with compound 24 hr before fungal inoculation assessed as inhibition of cucumber powdery mildew disease at 31.3 ppm measured after 10 days under greenhouse conditions relative to untreated control
[8] = test system: Puccinia coronata; test: Fungicidal activity against Puccinia coronata inoculated in oat leaves pre-treated with compound 24 hr before fungal inoculation assessed as inhibition of oat crown rust disease at 31.3 ppm measured after 9 days under greenhouse conditions relative to untreated control
[9] = test system: Podosphaera fuliginea; test: Fungicidal activity against Podosphaera fuliginea inoculated on cucumber plants treated with compound 24 hr after fungal inoculation assessed as inhibition of cucumber powdery mildew disease at 7.8 ppm measured after 10 days under greenhouse conditions relative to untreated control
[10] = test system: Botrytis cinerea; test: Fungicidal activity against Botryotinia fuckeliana inoculated on cucumber leaves treated with compound 24 hr after fungal inoculation assessed as inhibition of cucumber gray mold disease at 31.3 ppm measured after 3 days under greenhouse conditions relative to untreated control
[11] = test system: Blumeria graminis f. sp. tritici; test: Fungicidal activity against Blumeria graminis f. sp. tritici inoculated on wheat seedlings treated with compound 24 hr after fungal inoculation assessed as inhibition of wheat powdery mildew disease at 7.8 ppm measured after 10 days under greenhouse conditions relative to untreated control
[12] = test system: Podosphaera fuliginea; test: Fungicidal activity against Podosphaera fuliginea inoculated on cucumber plants treated with compound 24 hr after fungal inoculation assessed as inhibition of cucumber powdery mildew disease at 31.3 ppm measured after 10 days under greenhouse conditions relative to untreated control
[13] = test system: Blumeria graminis f. sp. tritici; test: Fungicidal activity against Blumeria graminis f. sp. tritici inoculated on wheat seedlings pre-treated with compound 24 hr before fungal inoculation assessed as inhibition of wheat powdery mildew disease at 7.8 ppm measured after 10 days under greenhouse conditions relative to untreated control
[14] = test system: Botrytis cinerea; test: Fungicidal activity against Botryotinia fuckeliana inoculated on cucumber leaves pre-treated with compound 24 hr before fungal inoculation assessed as inhibition of cucumber gray mold disease at 7.8 ppm measured after 3 days under greenhouse conditions relative to untreated control
[15] = test system: Podosphaera fuliginea; test: Fungicidal activity against Podosphaera fuliginea inoculated on cucumber plants pre-treated with compound 24 hr before fungal inoculation assessed as inhibition of cucumber powdery mildew disease at 7.8 ppm measured after 10 days under greenhouse conditions relative to untreated control
[16] = test system: Botrytis cinerea; test: Fungicidal activity against Botryotinia fuckeliana inoculated on cucumber leaves treated with compound 24 hr after fungal inoculation assessed as inhibition of cucumber gray mold disease at 7.8 ppm measured after 3 days under greenhouse conditions relative to untreated control
[17] = test system: Blumeria graminis f. sp. tritici; test: Fungicidal activity against Blumeria graminis f. sp. tritici inoculated on wheat seedlings pre-treated with compound 24 hr before fungal inoculation assessed as inhibition of wheat powdery mildew disease at 500 ppm measured after 10 days under greenhouse conditions relative to untreated control
[18] = test system: Podosphaera fuliginea; test: Fungicidal activity against Podosphaera fuliginea inoculated on cucumber plants pre-treated with compound 24 hr before fungal inoculation assessed as inhibition of cucumber powdery mildew disease at 500 ppm measured after 10 days under greenhouse conditions relative to untreated control
[19] = test system: Pyricularia oryzae; test: Inhibition of oxygen consumption in Magnaporthe oryzae submitochondrial particles using NADH substrate
[20] = test system: Blumeria graminis f. sp. tritici; test: Fungicidal activity against Blumeria graminis f. sp. tritici inoculated on wheat seedlings pre-treated with compound 24 hr before fungal inoculation assessed as inhibition of wheat powdery mildew disease at 125 ppm measured after 10 days under greenhouse conditions relative to untreated control

CO/N=C(/C1=NOCC1)c1ccccc1COc1cc(C)ccc1C
inhibition at 31.3 ppm [1]: 50%
inhibition at 7.8 ppm [2]: 0%
inhibition at 31.3 ppm [3]: 20%
inhibition at 31.3 ppm [4]: 97%
inhibition at 31.3 ppm [5]: 90%
inhibition at 7.8 ppm [6]: 30%
inhibition at 31.3 ppm [7]: 100%
inhibition at 31.3 ppm [8]: 90%
inhibition at 7.8 ppm [9]: 100%
inhibition at 31.3 ppm [10]: 20%
inhibition at 7.8 ppm [11]: 70%
inhibition at 31.3 ppm [12]: 100%
inhibition at 7.8 ppm [13]: 90%
inhibition at 7.8 ppm [14]: 0%
inhibition at 7.8 ppm [15]: 90%
inhibition at 7.8 ppm [16]: 0%

CO/N=C(/c1cc(C)on1)c1ccccc1COc1cc(C)ccc1C
inhibition at 500 ppm [17]: < 90%
inhibition at 31.3 ppm [7]: 90%

CO/N=C(/c1cc(C)no1)c1ccccc1COc1cc(C)ccc1C
inhibition at 31.3 ppm [5]: 90%
inhibition at 7.8 ppm [15]: 90%

CCc1cc(/C(=N/OC)c2ccccc2COc2cc(C)ccc2C)on1
inhibition at 500 ppm [18]: 90%
inhibition at 500 ppm [17]: < 90%

CO/N=C(\c1cc(C)no1)c1ccccc1COc1cc(C)ccc1C
inhibition at 31.3 ppm [1]: 100%
inhibition at 7.8 ppm [2]: 97%
inhibition at 31.3 ppm [3]: 30%
inhibition at 31.3 ppm [4]: 97%
inhibition at 31.3 ppm [5]: 97%
inhibition at 7.8 ppm [6]: 90%
inhibition at 31.3 ppm [7]: 100%
inhibition at 31.3 ppm [8]: 97%
inhibition at 7.8 ppm [9]: 100%
inhibition at 31.3 ppm [10]: 20%
inhibition at 7.8 ppm [11]: 70%
inhibition at 31.3 ppm [12]: 100%
inhibition at 7.8 ppm [13]: 97%
inhibition at 7.8 ppm [14]: 10%
IC50 [19]: 46 nM
inhibition at 7.8 ppm [15]: 100%
inhibition at 7.8 ppm [16]: 0%

CO/N=C(\c1ccon1)c1ccccc1COc1cc(C)ccc1C
inhibition at 31.3 ppm [7]: 90%
inhibition at 7.8 ppm [13]: 90%

CO/N=C(/c1ccno1)c1ccccc1COc1cc(C)ccc1C
inhibition at 31.3 ppm [5]: 90%
inhibition at 31.3 ppm [7]: 90%

CO/N=C(\c1ccno1)c1ccccc1COc1cc(C)ccc1C
inhibition at 500 ppm [18]: 90%
inhibition at 500 ppm [17]: 90%

CO/N=C(/C1=NOC(C)C1)c1ccccc1COc1cc(C)ccc1C (configuration not stated)
inhibition at 500 ppm [17]: 90%
inhibition at 31.3 ppm [7]: 90%

CON=C(C1=NOCC1)c1ccccc1COc1cc(C)ccc1C
inhibition at 125 ppm [20]: 90%
inhibition at 7.8 ppm [15]: 90%

CO/N=C(/c1cc(OC)on1)c1ccccc1COc1cc(C)ccc1C
inhibition at 500 ppm [17]: < 90%
inhibition at 31.3 ppm [7]: 90%

CON=C(c1cc(C)on1)c1ccccc1COc1cc(C)ccc1C
inhibition at 31.3 ppm [5]: 90%
inhibition at 7.8 ppm [15]: 90%

CO/N=C(\Cc1cc(C)no1)c1ccccc1COc1cc(C)ccc1C
inhibition at 500 ppm [18]: < 90%
inhibition at 500 ppm [17]: < 90%

CON=C(c1ccon1)c1ccccc1COc1cc(C)ccc1C
inhibition at 7.8 ppm [13]: 90%
inhibition at 7.8 ppm [15]: 90%

CO/N=C(/C1=NOC(C)(C)C1)c1ccccc1COc1cc(C)ccc1C
inhibition at 500 ppm [18]: < 90%
inhibition at 500 ppm [17]: < 90%

CO/N=C(\c1ccccc1COc1cc(C)ccc1C)c1c(C)noc1C
inhibition at 500 ppm [18]: 90%
inhibition at 500 ppm [17]: < 90%

CO/N=C(\c1ccccc1COc1cc(C)ccc1C)C1CC(C)=NO1 (configuration not stated)
inhibition at 500 ppm [17]: < 90%
inhibition at 31.3 ppm [7]: 90%

CO/N=C(/c1ccon1)c1ccccc1COc1cc(C)ccc1C
inhibition at 31.3 ppm [1]: 70%
inhibition at 7.8 ppm [2]: 30%
inhibition at 31.3 ppm [3]: 40%
inhibition at 31.3 ppm [4]: 97%
inhibition at 31.3 ppm [5]: 97%
inhibition at 7.8 ppm [6]: 90%
inhibition at 31.3 ppm [7]: 100%
inhibition at 31.3 ppm [8]: 97%
inhibition at 7.8 ppm [9]: 100%
inhibition at 31.3 ppm [10]: 30%
inhibition at 7.8 ppm [11]: 90%
inhibition at 31.3 ppm [12]: 100%
inhibition at 7.8 ppm [13]: 97%
inhibition at 7.8 ppm [14]: 20%
IC50 [19]: 103 nM
inhibition at 7.8 ppm [15]: 100%
inhibition at 7.8 ppm [16]: 30%

CNC(=O)/C(=N/OC)c1ccccc1Oc1cc(C)ccc1C
inhibition at 31.3 ppm [1]: 100%
inhibition at 7.8 ppm [2]: 100%
inhibition at 31.3 ppm [3]: 50%
inhibition at 31.3 ppm [4]: 97%
inhibition at 31.3 ppm [5]: 100%
inhibition at 7.8 ppm [6]: 100%
inhibition at 31.3 ppm [7]: 100%
inhibition at 31.3 ppm [8]: 100%
inhibition at 7.8 ppm [9]: 100%
inhibition at 31.3 ppm [10]: 50%
inhibition at 7.8 ppm [11]: 97%
inhibition at 31.3 ppm [12]: 100%
inhibition at 7.8 ppm [13]: 100%
inhibition at 7.8 ppm [14]: 40%
IC50 [19]: 18 nM
inhibition at 7.8 ppm [15]: 100%
inhibition at 7.8 ppm [16]: 40%
